Reference: patent US20110053969A1, “NOVEL DIAZASIPIROAKANES AND THEIR USE FOR TREATMENT OF CCR8 MEDIATED DISEASES” (ASTRAZENECA AB, priority 2005, published 2011)
Counter-ions that a name gives are not always drawn.

Key:
[1] = molecular target: T1, human recombinant chemokine CCR8 receptor (Homo sapiens, UniProt P51685); test: CCL1 SPA binding assay; conditions: inhibition of 125I CCL1 binding to membranes from CHO-K1 cells transfected with human CCR8
T1 construct: purchased Euroscreen ES-136-M; host or cells: CHO-K1 cells (transfected), membrane preparation
Experimental: Membranes from CHO-K1 cells transfected with human recombinant chemokine CCR8 receptor (ES-136-M) were purchased from Euroscreen. Membrane preparations are stored at −70 C in 7.5 mM Tris-Cl pH 7.5, 12.5 mM MgCl2, 0.3 mM EDTA, 1 mM EGTA, 250 mM sucrose until used.
The CCR8 membranes (50.6 mg/ml) were preincubated with Wheat Germ Agglutinin SPA beads (4.05 mg/ml) in assay buffer (50 mM HEPES, 1 mM CaCl2x2H2O, 5 mM MgCl2x6H2O, 75 mM NaCl, 0.1% BSA) at pH=7.4 for 2 hours on ice. A 10-point dose-response curve (final concentrations 50 μM, 16.7 μM, 5.6 μM, 1.9 μM, 0.62 μM, 0.21 μM, 0.069 μM, 0.023 μM) was prepared by diluting compounds by serial dilution 1:3 in DMSO. In the screening plate (Polystyrene NBS plates, Costar Corning 3604) 1 μl from the DMSO solutions of compounds was transferred into each well. 1 μl of DMSO was added to the blank control wells and 1 μl unlabeled CCL1 (300 nM) was added to background control wells. 50 μl of the SPA bead-membrane mixture was added into each well. Finally, 50 μl. ([…]) ^125I CCL1 (2000 Ci/mM) was added to each well. Plates were then incubated at RT with shaking (700 rpm) for 90 minutes followed by 30 minutes at RT without shaking. The plate was read in a Wallac MicroBeta counter for 2 minutes/well.

[2] = Human microsomal stability assay; assay type: in vitro ADME; conditions: human microsomes (Xenotech), 1 mg microsomal protein/mL, 2.5 μM compound, 2 mM NADPH, pH 7.4, 37° C., read-out: Human Microsomal Stability (intrinsic Clearance, CLint)
Experimental: Human Microsomal Stability Assay
The assay is run in a 96-deepwell format at 1 mg microsomal protein (Xenotech)/mL in potassium phosphate buffer (pH 7.4) with a compound concentration of 2.5 μM and a NADPH concentration of 2 mM. Samples at four time-points (0, 5, 15 and 30 minutes) are withdrawn and the enzymatic reaction is terminated by protein precipitation with 1% acetic acid in acetonitrile. The incubations are performed on a thermostated plate (37° C.) placed on a Tecan worktable, and all liquid handling was performed robotically. After centrifugation of the samples, the supernatants are pooled in sets of four before they are analysed by liquid chromatography with tandem mass spectrometry detection (LC/MS/MS) using multiple reaction monitoring (MRM). Data are presented as intrinsic Clearance (CLint), μl/min/mg protein, calculated from the initial linear part of the compound disappearance curve.

T1 sequence (P51685 whole entry): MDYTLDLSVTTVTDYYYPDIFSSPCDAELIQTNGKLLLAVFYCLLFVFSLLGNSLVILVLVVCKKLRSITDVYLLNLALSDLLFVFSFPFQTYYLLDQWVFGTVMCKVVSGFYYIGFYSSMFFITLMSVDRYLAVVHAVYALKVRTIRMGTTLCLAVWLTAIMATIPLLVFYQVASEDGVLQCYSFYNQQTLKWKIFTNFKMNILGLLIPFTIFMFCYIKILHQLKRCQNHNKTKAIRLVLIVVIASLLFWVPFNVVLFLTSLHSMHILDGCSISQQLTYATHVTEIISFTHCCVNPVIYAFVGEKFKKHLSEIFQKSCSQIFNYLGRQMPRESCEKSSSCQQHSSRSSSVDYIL

Row | SMILES | IC50 [1] | microsomal CLint at 2.5 μM [2]
1 | CC(C)COc1ccccc1CN1CCC2(CC1)CCN(C(=O)c1ccc(=O)[nH]c1)CC2 [B, 5-{[9-(2-isobutoxybenzyl)-3,9-diazaspiro[5.5]undec-3-yl]carbonyl}pyridin-2(1H)-one, reference compound] | 1900 nM | –
2 | COc1ccccc1Oc1ccccc1CN1CCC2(CC1)CCN(C(=O)c1ccc(=O)[nH]c1C(F)(F)F)CC2 [Example 3, 5-({9-[2-(2-methoxyphenoxy)benzyl]-3,9-diazaspiro[5.5]undec-3-yl}carbonyl)-6-(trifluoromethyl)pyridin-2(1H)-one trifluoroacetate] | 83 nM | < 10 µL/min/mg
3 | CC(C)COc1ccccc1CN1CCC2(CC1)CCN(C(=O)c1ccc[nH]c1=O)CC2 [A, 3-{[9-(2-isobutoxybenzyl)-3,9-diazaspiro[5.5]undec-3-yl]carbonyl}pyridin-2(1H)-one, reference compound] | 1950 nM | –

Other lines, results leading:

Row | IC50 [1] | microsomal CLint at 2.5 μM [2] | SMILES
4 | 15 nM | 21.7 µL/min/mg | COc1ccccc1Oc1cccc(CN2CCC3(CC2)CCN(C(=O)c2ccc[nH]c2=O)CC3)c1 [Example 4, 3-({9-[3-(2-methoxyphenoxy)benzyl]-3,9-diazaspiro[5.5]undec-3-yl}carbonyl)pyridin-2(1H)-one]
5 | 62 nM | < 10 µL/min/mg | COc1ccccc1Oc1ccccc1CN1CCC2(CC1)CCN(C(=O)c1ccc[nH]c1=O)CC2 [Example 2, 3-({9-[2-(2-methoxyphenoxy)benzyl]-3,9-diazaspiro[5.5]undec-3-yl}carbonyl)pyridin-2(1H)-one]
